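Interpolation was linear, between the two tested concentrations surrounding the appropriate level; five concentrations were tested over 48 hours in 96-well plates. TGI: concentration producing complete growth inhibition.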
Columns and labels:
Assay in all cases: growth of human tumour cells (NCI), 48 h
[1] = system: MDA-MB-435
[2] = system: PC-3 prostate
[3] = system: HL-60(TB) leukemia
[4] = system: A498 renal
[5] = system: 786-0 renal
[6] = system: HCC-2998 colon
[7] = system: MOLT-4 leukemia
[8] = system: RXF 393 renal
[9] = system: MCF7 breast
[10] = system: SK-OV-3 ovarian
[11] = system: KM12 colon
[12] = system: OVCAR-3 ovarian
[13] = system: SR leukemia
[14] = system: SK-MEL-28 melanoma
[15] = system: TK-10 renal
[16] = system: K-562 leukemia
[17] = system: SN12C renal
[18] = system: UO-31 renal
[19] = system: T-47D breast
[20] = system: SK-MEL-2 melanoma
[21] = system: SF-268 CNS
[22] = system: U251 CNS
[23] = system: M14 melanoma
[24] = system: OVCAR-4 ovarian
[25] = system: RPMI-8226 leukemia
[26] = system: DU-145 prostate
[27] = system: HS 578T breast
[28] = system: SK-MEL-5 melanoma
[29] = system: NCI-H460 lung
[30] = system: SNB-19 CNS
[31] = system: A549 NSCLC
[32] = system: BT-549 breast
[33] = system: HCT-116 colon
[34] = system: LOX IMVI melanoma
[35] = system: HT29 colon
[36] = system: SW-620 colon
[37] = system: NCI-H522 lung
[38] = system: COLO 205 colon
[39] = system: HCT-15 colon
[40] = system: NCI-H23 lung
[41] = system: CCRF-CEM leukemia
[42] = system: OVCAR-8 ovarian
[43] = system: MALME-3M melanoma
[44] = system: MDA-MB-231 breast
[45] = system: IGROV1 ovarian
[46] = system: NCI/ADR-RES ovarian
[47] = system: UACC-62 melanoma
[48] = system: MDA-N
[49] = system: NCI-H226 lung
[50] = system: SNB-75 CNS
[51] = system: UACC-257 melanoma
[52] = system: SF-539 CNS
[53] = system: CAKI-1 renal
[54] = system: EKVX NSCLC
[55] = system: OVCAR-5 ovarian

Measured: TGI

CC(C(=O)O)C(C)(O)C(=O)O (stereo not given)
> 100 µM: [1] | [2] | [3] | [4] | [5] | [6] | [7] | [8] | [9] | [10] | [11] | [12] | [13] | [14] | [15] | [16] | [17] | [18] | [19] | [20] | [21] | [22] | [23] | [24] | [25] | [26] | [27] | [28] | [29] | [30] | [31] | [32] | [33] | [34] | [35] | [36] | [37] | [38] | [39] | [40] | [41] | [42] | [43] | [44] | [45] | [46] | [47] | [48] | [49] | [50] | [51] | [52] | [53] | [54] | [55]
